We go through 4 molecules from US20030190325A1, “Novel peroxiredoxin defense system from mycobacterium tuberculosis” (priority 2002, published 2003).

One data set deals with TR (bovine). The data set is described as follows: Counter-test on bovine TR. The format is biochemical. As to conditions: at 10 μM. The arrangement: key: “NE” means no effect.
A further data set has as its target T1, SucB (Mycobacterium tuberculosis, UniProt P9WIS7).
T1 construct: Lpd and SucB ORFs were amplified by PCR from M. tuberculosis H37Rv genomic DNA; made in house; host or cells: E. coli BL21(DE3), pET11c, culture supplemented with lipoic acid
T1 sequence (P9WIS7 1-553): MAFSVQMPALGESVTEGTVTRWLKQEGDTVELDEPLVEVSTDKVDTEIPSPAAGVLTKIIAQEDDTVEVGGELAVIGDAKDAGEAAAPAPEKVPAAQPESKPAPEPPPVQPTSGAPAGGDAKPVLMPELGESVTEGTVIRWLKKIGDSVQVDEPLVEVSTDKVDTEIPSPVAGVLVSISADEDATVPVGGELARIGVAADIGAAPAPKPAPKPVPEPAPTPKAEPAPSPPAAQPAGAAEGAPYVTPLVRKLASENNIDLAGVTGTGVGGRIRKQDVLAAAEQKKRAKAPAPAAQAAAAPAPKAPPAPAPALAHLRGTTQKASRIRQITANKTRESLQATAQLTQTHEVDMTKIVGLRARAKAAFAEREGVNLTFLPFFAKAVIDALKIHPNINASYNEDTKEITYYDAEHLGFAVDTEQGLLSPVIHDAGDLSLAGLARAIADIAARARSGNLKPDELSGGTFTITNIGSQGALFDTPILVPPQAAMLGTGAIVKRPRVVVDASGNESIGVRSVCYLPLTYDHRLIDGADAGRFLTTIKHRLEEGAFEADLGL
Briefly: Inhibition constant for the enzyme identified as target: SucB. The data set is classed as biochemical. The text has this:
Table 2 lists the molecular structures of eleven chemical compounds that were identified from the above screen. The first three compounds in Table 2 were further identified as to which of the 3 enzymes (AhpD, Lpd, SucB) each inhibited.

For another data set, the system named is αKG-DH (porcine). Briefly: Counter-test on porcine αKG-DH. The data set is classed as biochemical. The arrangement: key to αKG-DH (porcine): “NE” means no effect. The following applies: at 50 μM.
The target of the next data set is T2, Lpd (porcine) (Sus scrofa, UniProt P09623).
T2 sequence (P09623 36-509): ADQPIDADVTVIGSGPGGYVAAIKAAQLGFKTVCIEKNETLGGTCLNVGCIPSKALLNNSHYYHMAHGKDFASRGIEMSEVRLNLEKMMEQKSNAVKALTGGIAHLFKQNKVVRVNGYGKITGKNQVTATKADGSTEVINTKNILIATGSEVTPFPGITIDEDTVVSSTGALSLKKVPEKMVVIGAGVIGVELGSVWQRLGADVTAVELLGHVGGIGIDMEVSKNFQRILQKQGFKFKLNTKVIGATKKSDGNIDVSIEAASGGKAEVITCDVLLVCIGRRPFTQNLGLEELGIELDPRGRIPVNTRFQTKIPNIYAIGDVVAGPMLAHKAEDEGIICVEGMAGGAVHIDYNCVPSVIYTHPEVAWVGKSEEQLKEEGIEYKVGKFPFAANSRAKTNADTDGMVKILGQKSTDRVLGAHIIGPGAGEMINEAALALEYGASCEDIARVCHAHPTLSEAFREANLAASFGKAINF
The data set is described as follows: Counter-test on porcine Lpd. The format is biochemical. The arrangement: key: “NE” means no effect. As to conditions: at 10 μM.

Data set [1] deals with the molecule itself. The data set is described as follows: X-ray crystal structure at 2.0 Å, homotrimer.

As to `O=C(O)CN1C(=O)/C(=C\c2ccc(-c3cccc(Cl)c3Cl)o2)SC1=S` [3229-2113], in the data set with TR (bovine), the “TR (bovine)” value was “NE at 10 μM”. In addition, the Ki (commonly a dissociation constant, usually derived from enzyme kinetics or from competition with a known ligand) on SucB stood at 6 µM. Besides, the “Macs Viabil. (50 μM)” value in the data set on mouse macrophages is reported as 91% ±5%. The “αKG-DH (porcine)” value in the data set on αKG-DH (porcine) is recorded as “NE at 50 μM”. Besides, on Lpd (porcine), the “Lpd (porcine)” value is “NE at 10 μM”.
Turning to `O=C(O)CCN1C(=O)/C(=C\c2ccc(-c3cccc(C(F)(F)F)c3)o2)SC1=S` [2556-0286], the “TR (bovine)” value in the data set on TR (bovine) is listed as “NE at 10 μM”. This molecule displayed a Ki on SucB of 3 µM. In the data set with mouse macrophages, the “Macs Viabil. (50 μM)” value is given as 80% ±1%. Further, in the data set with αKG-DH (porcine), the “αKG-DH (porcine)” value is listed as “NE at 50 μM”. In addition, at Lpd (porcine), the “Lpd (porcine)” value is “NE at 10 μM”.
For the molecule `Cc1cc(C)cc(/N=C2/NC(=O)/C(=C\c3cc(Br)c(O)c([N+](=O)O)c3)S2)c1` [2368-0687], in the data set with TR (bovine), the “TR (bovine)” value was “NE at 10 μM”. Further, the “Macs Viabil. (50 μM)” value in the data set on mouse macrophages is listed as 70% ±13% *clu- sters. The “αKG-DH (porcine) inhibition” value with αKG-DH (porcine) was 5-10% inhi- bition at 50 μM. On Lpd (porcine), the “Lpd (porcine)” value was “NE at 10 µM”.

B1: AhpD (protein encoded by the ahpD gene, Rv2429, of Mycobacterium tuberculosis) (enzyme)
chain: MSIEKLKAALPEYAKDIKLNLSSITRSSVLDQEQLWGTLLASAAATRNPQVLADIGAEATDHLSAAARHAALGAAAIMGMNNVFYRGRGFLEGRYDDLRPGLRMNIIANPGIPKANFELWSFAVSAINGCSHCLVAHEHTLRTVGVDREAIFEALKAAAIVSGVAQALATIEALSPS
notes: Homotrimer in the crystal; also called recombinant AhpD
Turning to B1, the binding result in data set [1] is “binds”.
